In patent publication US8648076B2, “Cysteine protease inhibitors and their therapeutic applications” (Hybrigenics SA, priority 2005, dated 2014):
pIC50: −log10 of the molar value. Like-named read-outs stand apart in the source and are kept apart here.

Legend:
[1] = system: PC-3 prostate cancer cells; experiment: PC3 cell viability and proliferation assay (MTS); assay type: cell-based; settings: PC3 cells, 72 hours incubation, MTS, mean of 3 independent experiments, read-out: PC3 D3 GI50
[2] = system: HCT116 colon cancer cells; experiment: HCT116 cell viability and proliferation assay (MTS); assay type: cell-based; settings: HCT116 cells, 72 hours incubation, MTS, mean of 3 independent experiments, read-out: HCT116 D3 GI50
USP7 = molecular target: T1, USP7 (Homo sapiens, UniProt Q93009); experiment: USP7 activity assay; assay type: biochemical; settings: 400 nM Ub-AMC, 152 pM enzyme, 30 min pre-incubation at 25° C., 60 min at 37° C.; sigmoidal fit; read-out: USP 7 (inhibition of cysteine protease activity)
T1 construct: His tag (from pFastBac-HT vector) (N); made in house; host or cells: insect cells (Sf9 or High Five), baculovirus

USP8 = molecular target: T2, USP8 (Homo sapiens, UniProt P40818); experiment: USP8 activity assay; assay type: biochemical; settings: 400 nM Ub-AMC, pH8.8, 30 min pre-incubation at 25° C., 60 min at 37° C.; sigmoidal fit; AF: Autofluorescent; read-out: USP 8 (inhibition of cysteine protease activity)
T2 sequence (P40818 1-1118): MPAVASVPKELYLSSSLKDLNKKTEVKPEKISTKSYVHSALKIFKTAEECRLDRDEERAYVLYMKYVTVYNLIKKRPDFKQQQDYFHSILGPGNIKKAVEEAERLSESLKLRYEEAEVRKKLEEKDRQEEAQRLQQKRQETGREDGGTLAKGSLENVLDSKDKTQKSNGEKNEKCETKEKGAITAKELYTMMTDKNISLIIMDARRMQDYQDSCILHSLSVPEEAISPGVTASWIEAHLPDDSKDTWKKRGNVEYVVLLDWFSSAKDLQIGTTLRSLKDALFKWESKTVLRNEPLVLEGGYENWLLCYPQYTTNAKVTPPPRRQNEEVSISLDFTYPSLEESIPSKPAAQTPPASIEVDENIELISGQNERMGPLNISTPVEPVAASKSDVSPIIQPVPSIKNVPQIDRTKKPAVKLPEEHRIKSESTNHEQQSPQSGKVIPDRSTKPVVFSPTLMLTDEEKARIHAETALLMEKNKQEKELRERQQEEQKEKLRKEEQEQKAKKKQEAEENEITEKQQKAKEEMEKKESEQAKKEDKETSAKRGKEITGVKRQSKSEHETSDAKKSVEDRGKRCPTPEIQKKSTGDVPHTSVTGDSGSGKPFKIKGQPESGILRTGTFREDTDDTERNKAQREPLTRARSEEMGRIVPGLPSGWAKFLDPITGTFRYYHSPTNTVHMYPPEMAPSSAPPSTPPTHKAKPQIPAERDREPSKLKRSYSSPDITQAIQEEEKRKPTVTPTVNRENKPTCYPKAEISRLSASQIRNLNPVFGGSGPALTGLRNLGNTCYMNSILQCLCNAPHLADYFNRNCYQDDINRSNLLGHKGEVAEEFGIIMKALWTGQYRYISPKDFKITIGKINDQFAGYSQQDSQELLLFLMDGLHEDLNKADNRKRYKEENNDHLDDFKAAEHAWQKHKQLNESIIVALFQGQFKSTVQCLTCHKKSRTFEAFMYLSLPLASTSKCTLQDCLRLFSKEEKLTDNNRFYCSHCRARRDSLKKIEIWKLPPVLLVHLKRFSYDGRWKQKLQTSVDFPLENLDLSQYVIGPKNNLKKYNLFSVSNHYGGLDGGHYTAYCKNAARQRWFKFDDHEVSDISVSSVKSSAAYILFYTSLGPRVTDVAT

Uch-L3 = molecular target: T3, Uch-L3 (Homo sapiens, UniProt P15374); experiment: UCH-L3 activity assay; assay type: biochemical; settings: 400 nM Ub-AMC, 13 pM enzyme, 30 min pre-incubation at 25° C., 60 min at 37° C.; sigmoidal fit; AF: Autofluorescent; read-out: Uch-L3 (inhibition of cysteine protease activity)
T3 sequence (P15374 1-230): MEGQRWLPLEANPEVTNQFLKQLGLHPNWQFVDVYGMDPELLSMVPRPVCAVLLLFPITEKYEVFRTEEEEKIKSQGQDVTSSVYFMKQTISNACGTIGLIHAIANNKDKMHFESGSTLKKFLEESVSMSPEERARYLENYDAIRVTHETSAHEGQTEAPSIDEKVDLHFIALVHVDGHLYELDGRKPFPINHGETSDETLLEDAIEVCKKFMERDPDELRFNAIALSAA
Protocol: Bovine Serum Albumin 0.05 mg·ml^−1 pH7.6). Compounds stocks (100 mM) were stored at −20° C. in DMSO. […] Reactions were performed as duplicates in Black LJL 96 well plates (HE microplates; Molecular Devices; 20 μl final reaction volume). The substrate concentration for Uch-L3 was 400 nM Ub-AMC (Boston Biochem). The concentration of the enzyme (Uch-L3) in specificity assays was 13 pM. The concentrations were determined in order to perform specificity assays under initial velocities at fixed substrate concentration. Compounds were pre-incubated with enzymes for 30 minutes at 25° C. Reactions were initiated by addition of substrate to the plates containing the enzymes (+/−compounds) diluted in assay buffer. Reactions were incubated for 60 minutes at 37° C. Reactions were stopped by adding acetic acid (100 mM final). Readings were performed on a Pherastar Fluorescent Reader (BMG). δ Emission 380 nm; δ Excitation=460 nm. Data (mean values+/− standard deviation) were analyzed as % of control (no compound) and plotted as percentage versus the Log of the compound concentration using GraphPad (Prism). Data were fitted to a sigmoidal model (variable slope).

T1 sequence (Q93009 whole entry): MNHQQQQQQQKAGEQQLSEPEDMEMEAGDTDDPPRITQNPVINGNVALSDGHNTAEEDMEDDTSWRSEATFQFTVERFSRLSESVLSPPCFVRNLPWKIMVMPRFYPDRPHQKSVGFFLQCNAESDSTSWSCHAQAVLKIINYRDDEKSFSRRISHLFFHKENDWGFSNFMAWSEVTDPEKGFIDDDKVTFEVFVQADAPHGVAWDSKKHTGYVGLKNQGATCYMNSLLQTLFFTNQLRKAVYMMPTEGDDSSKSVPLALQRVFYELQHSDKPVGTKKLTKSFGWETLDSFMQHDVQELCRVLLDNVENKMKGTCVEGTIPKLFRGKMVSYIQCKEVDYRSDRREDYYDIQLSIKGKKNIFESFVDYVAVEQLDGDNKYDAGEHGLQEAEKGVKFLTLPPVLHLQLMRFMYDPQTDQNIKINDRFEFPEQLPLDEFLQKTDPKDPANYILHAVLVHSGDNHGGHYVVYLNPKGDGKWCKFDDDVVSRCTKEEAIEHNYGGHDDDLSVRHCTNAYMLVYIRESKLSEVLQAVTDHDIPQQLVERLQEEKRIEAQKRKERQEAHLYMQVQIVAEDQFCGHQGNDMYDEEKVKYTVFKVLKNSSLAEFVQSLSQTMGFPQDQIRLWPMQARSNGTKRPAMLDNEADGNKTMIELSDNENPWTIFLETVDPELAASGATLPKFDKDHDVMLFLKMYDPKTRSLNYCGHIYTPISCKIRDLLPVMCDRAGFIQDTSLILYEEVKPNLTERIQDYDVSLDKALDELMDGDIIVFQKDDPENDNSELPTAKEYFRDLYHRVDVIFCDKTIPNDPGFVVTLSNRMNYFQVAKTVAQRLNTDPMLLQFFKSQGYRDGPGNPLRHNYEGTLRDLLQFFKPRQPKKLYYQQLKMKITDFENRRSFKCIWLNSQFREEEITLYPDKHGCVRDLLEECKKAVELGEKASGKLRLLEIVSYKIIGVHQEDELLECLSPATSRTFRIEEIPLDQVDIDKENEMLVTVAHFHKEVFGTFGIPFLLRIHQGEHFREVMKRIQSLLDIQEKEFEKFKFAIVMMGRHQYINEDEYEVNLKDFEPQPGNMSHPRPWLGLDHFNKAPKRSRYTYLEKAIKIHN

In the case of `N#Cc1nc2c(nc1C#N)-c1cc(Cl)ccc1C2=O` [Example 25, 6-Chloro-9-oxo-9H-indeno[1,2-b]pyrazine-2,3-dicarbonitrile], the GI50 ([1]; Homo sapiens, PC-3) was 1400 nM and the GI50 ([2]; Homo sapiens, HCT-116) was 190 nM.

Work on `C=CCON=C1c2cc(Cl)ccc2-c2nc(C#N)c(C#N)nc21` [Example 24b, 9-Allyloxyimino-7-chloro-9H-indeno[1,2-b]pyrazine-2,3-dicarbonitrile] yielded a GI50 ([1]; Homo sapiens, PC-3) of 620 nM and a GI50 ([2]; Homo sapiens, HCT-116) of 940 nM.

In the case of `CON=C1c2cc(Cl)ccc2-c2nc(C#N)c(C#N)nc21` [Example 24a, 7-Chloro-9-methoxyimino-9H-indeno[1,2-b]pyrazine-2,3-dicarbonitrile], the GI50 ([1]; Homo sapiens, PC-3) was 390 nM and the GI50 ([2]; Homo sapiens, HCT-116) was 500 nM.

`N#Cc1nc2c(nc1C(N)=O)-c1ccccc1/C2=N\O` [Example 33, 2-cyano-9-[hydroxyimino]-9H-indeno[1,2-b]pyrazine-3-carboxylic acid amide] gave a pIC50 (USP7) of 4.89, a pIC50 (USP8) of 6.13 and a GI50 [1] of 1200 nM. The GI50 [2] was 1600 nM and the pIC50 (Uch-L3) was 6.22.

Work on `COc1nc2c(nc1C#N)C(O)c1ccccc1-2` (stereo not shown) [Example 2, 9-hydroxy-3-methoxy-9H-indeno[1,2-b]pyrazine-2-carbonitrile] yielded a GI50 ([1]; Homo sapiens, PC-3, 72 h) greater than 10000 nM and a GI50 ([2]; Homo sapiens, HCT-116) greater than 10000 nM.
